# What was measured:
# [1] = Quantitative sweetness synergy of monatin in blends with other sweeteners; assay type: in vivo
# [2] = Stability of monatin at pH 3 with increasing temperatures; assay type: physicochemical
# Protocol: A sample of synthetic monatin was subjected to pH 3 at temperatures of 25° C., 50° C. and 100° C. At room temperature and pH 3, a 14% loss in monatin was observed over a period of 48 hours. This loss was attributed to lactone formation. At 50° C. and pH 3, a 23% loss in monatin was observed over a period of 48 hours. This loss was attributed to lactone formation and the buildup of an unknown compound after about 15.5 minutes. […] The major detectable component was an unknown at 15.5 minutes.
# [3] = Sensory stability of monatin and aspartame at pH 2.5, 3.0, 4.0 at 40° C. (sweetness vs sucrose standards, panel n=8); assay type: physicochemical; details: for Rate constant (k; day^−1) of sweetness loss: pseudo-first order assumed
# Protocol: The sensory stability of monatin solutions prepared at pH 2.5, 3.0 and 4.0 and stored at 40° C. was monitored for 100 days. Loss of sweetness from these solutions was compared with the losses of sweetness from aspartame solutions prepared and stored under identical conditions.
# The sensory stability of monatin (8% SEV, ˜55 ppm, synthetic blend containing approximately 96% of the 2R,4R/2S, 4S enantiometric pair and 4% of the 2R,4S/2S,4R enantiometric pair) in phosphate/citrate buffers having a pH of 2.5, 3.0, and 4.0 was examined after storage at 40° C. The stability of monatin was compared to that of aspartame (400 ppm) in the same buffers. Three sucrose reference solutions were prepared in the same phosphate/citrate buffers as the monatin and aspartame solutions. All prepared solutions were stored in the dark.
# • pH2.5 Phosphoric acid (75% solution) 0.127% (w/v) • Tri-sodium citrate monohydrate 0.005% (w/v) • pH3.0 Phosphoric acid (75% solution) 0.092% (w/v) • Tri-sodium citrate monohydrate 0.031% (w/v) • pH4.0 Phosphoric acid (75% solution) 0.071% (w/v) • Tri-sodium citrate monohydrate 0.047% (w/v)
# The sweetness of each sweetener relative to sucrose was assessed in duplicate by a small panel (n=8) of trained sensory evaluators experienced in the sweetness estimation procedure. All samples (in the same buffers) were served in duplicate at a temperature of 22° C.±1° C. Monatin (test) solutions, coded with 3 digit random number codes were presented individually to panelists, in random order. Sucrose reference standards, ranging from 4.0-10.0% (w/v) sucrose, increasing in steps of 0.5% (w/v) sucrose were also provided. Panelists were asked to estimate sweetness by comparing the sweetness of the test solution to the sucrose standards. This was carried out by taking 3 sips of the test solution, followed by a sip of water, followed by 3 sips of sucrose standard followed by a sip of water, etc. Panelists were encouraged to estimate the sweetness to one decimal place, e.g., 6.8, 8.5. A five minute rest period was imposed between evaluating the test solutions. Panelists were also asked to rinse well and eat a cracker to reduce any potential carry over effects.
# If a pseudo-first order breakdown reaction is assumed, a plot of logn percentage retention versus time (logn% RTN v. t) allows estimation of the half-life (t½) and rate constant (k) of sweetness loss under any given set of conditions. In so doing, the kinetics of monatin and aspartame sweetness loss may be summarized as follows in Table 13.
# [4] = Stability of monatin at high temperature (80° C.) and neutral pH, LC-MS; assay type: physicochemical; details: pH 7, 75 ppm, after 7-35 days
# Protocol: A 100 milliliter solution of 75 ppm monatin at pH 7 was used as a stock solution. The synthetic monatin sample contained approximately 96% of the 2R,4R/2S,4S enantiomeric pair and 4% of the 2R,4S/2S,4R enantiomeric pair. Samples were incubated at 80° C. and pH 7 for the duration of the experiment and samples were withdrawn at 0, 1, 2, 3, 4 hours and 1, 2, 4, 7, 14, 21 and 35 days. All experimental conditions were run in duplicate.
# Separation and Quantification Using LC-MS using Reverse Phase Chromatography A response curve was established for both detected diastereomer peaks of the synthetic monatin. A range of 5-150 ppm was bracketed with the synthetic monatin standard dissolved in DI water. Separation of the two diastereomer peaks was accomplished using a 3.9×1 50 mm Novapak C18 (Waters Corporation) HPLC column. Ultraviolet-Visible (UV) and Mass Spectrometer (MS) detectors were used in series for detection and quantitation. Monatin and its lactone peak each have a UVmax at 279 nm that aided in precise detection. Quantification was done by acquiring Selected Ion Monitoring (SIM) scan of 293.3 m/z and 275.3 m/z in positive-ion electrospray mode.
# [5] = pH 2.5, 40° C., day 1, monatin ~55 ppm
# [6] = pH 2.5, 40° C., day 2, monatin ~55 ppm
# [7] = pH 2.5, 40° C., day 3, monatin ~55 ppm
# [8] = pH 2.5, 40° C., day 4, monatin ~55 ppm
# [9] = pH 2.5, 40° C., day 7, monatin ~55 ppm
# [10] = pH 2.5, 40° C., day 8, monatin ~55 ppm
# [11] = pH 2.5, 40° C., day 9, monatin ~55 ppm
# [12] = pH 2.5, 40° C., day 11, monatin ~55 ppm
# [13] = pH 2.5, 40° C., day 50, monatin ~55 ppm
# [14] = pH 2.5, 40° C., day 100, monatin ~55 ppm
# [15] = pH 3.0, 40° C., day 1, monatin ~55 ppm
# [16] = pH 3.0, 40° C., day 2, monatin ~55 ppm
# [17] = pH 3.0, 40° C., day 3, monatin ~55 ppm
# [18] = pH 3.0, 40° C., day 4, monatin ~55 ppm
# [19] = pH 3.0, 40° C., day 7, monatin ~55 ppm
# [20] = pH 3.0, 40° C., day 8, monatin ~55 ppm
# [21] = pH 3.0, 40° C., day 9, monatin ~55 ppm
# [22] = pH 3.0, 40° C., day 11, monatin ~55 ppm
# [23] = pH 3.0, 40° C., day 50, monatin ~55 ppm
# [24] = pH 3.0, 40° C., day 100, monatin ~55 ppm
# [25] = pH 4.0, 40° C., day 3, monatin ~55 ppm
# [26] = pH 4.0, 40° C., day 8, monatin ~55 ppm
# [27] = pH 4.0, 40° C., day 11, monatin ~55 ppm
# [28] = pH 4.0, 40° C., day 17, monatin ~55 ppm
# [29] = pH 4.0, 40° C., day 24, monatin ~55 ppm
# [30] = pH 4.0, 40° C., day 50, monatin ~55 ppm
# [31] = pH 4.0, 40° C., day 100, monatin ~55 ppm
smiles,measurement,setting,value
"NC(CC(O)(Cc1c[nH]c2ccccc12)C(=O)O)C(=O)O (stereo not drawn) [Monatin, 2-hydroxy-2-(indol-3-ylmethyl)-4-aminoglutaric acid]",quantitative synergy with cyclamates,[1]; blend with cyclamates,quantitatively synergistic
same,quantitative synergy with other sweeteners,"[1]; with aspartame, saccharin, acesulfame-K, sucralose, or carbohydrate sweeteners",no significant quantitative synergy
same,loss in monatin,"[2]; 50° C., pH 3, 48 hours",23%
same,loss in monatin,"[2]; 100° C., pH 3, 24 hours",nearly all monatin was lost
same,loss in monatin,"[2]; room temperature (25° C.), pH 3, 48 hours",14%
same,SEV Monatin (% sucrose),"[3]; pH 2.5, 40° C., day 0, monatin ~55 ppm",7.35 % sucrose
same,Retention of Monatin Sweetness (%),[3]; [5],93.3%
same,SEV Monatin (% sucrose),[3]; [5],6.86 % sucrose
same,Retention of Monatin Sweetness (%),[3]; [6],91.2%
same,SEV Monatin (% sucrose),[3]; [6],6.70 % sucrose
same,Retention of Monatin Sweetness (%),[3]; [7],88.4%
same,SEV Monatin (% sucrose),[3]; [7],6.50 % sucrose
same,Retention of Monatin Sweetness (%),[3]; [8],85.2%
same,SEV Monatin (% sucrose),[3]; [8],6.26 % sucrose
same,Retention of Monatin Sweetness (%),[3]; [9],82.7%
same,SEV Monatin (% sucrose),[3]; [9],6.08 % sucrose
same,Retention of Monatin Sweetness (%),[3]; [10],81.4%
same,SEV Monatin (% sucrose),[3]; [10],5.98 % sucrose
same,Retention of Monatin Sweetness (%),[3]; [11],80.1%
same,SEV Monatin (% sucrose),[3]; [11],5.89 % sucrose
same,Retention of Monatin Sweetness (%),[3]; [12],78.6%
same,SEV Monatin (% sucrose),[3]; [12],5.78 % sucrose
same,Retention of Monatin Sweetness (%),[3]; [13],62.7%
same,SEV Monatin (% sucrose),[3]; [13],4.61 % sucrose
same,Retention of Monatin Sweetness (%),[3]; [14],28.6%
same,SEV Monatin (% sucrose),[3]; [14],2.10 % sucrose
same,Rate constant (k; day^−1) of sweetness loss,"[3]; pH 2.5, 40° C.",0.011 day⁻¹
same,Sweetness Retained (%),"[3]; pH 2.5, 100 days storage at 40° C.",29%
same,SEV Monatin (% sucrose),"[3]; pH 3.0, 40° C., day 0, monatin ~55 ppm",7.08 % sucrose
same,Retention of Monatin Sweetness (%),[3]; [15],99.6%
same,SEV Monatin (% sucrose),[3]; [15],7.05 % sucrose
same,Retention of Monatin Sweetness (%),[3]; [16],93.2%
same,SEV Monatin (% sucrose),[3]; [16],6.60 % sucrose
same,Retention of Monatin Sweetness (%),[3]; [17],91.4%
same,SEV Monatin (% sucrose),[3]; [17],6.47 % sucrose
same,Retention of Monatin Sweetness (%),[3]; [18],91.6%
same,SEV Monatin (% sucrose),[3]; [18],6.49 % sucrose
same,Retention of Monatin Sweetness (%),[3]; [19],85.3%
same,SEV Monatin (% sucrose),[3]; [19],6.04 % sucrose
same,Retention of Monatin Sweetness (%),[3]; [20],83.8%
same,SEV Monatin (% sucrose),[3]; [20],5.93 % sucrose
same,Retention of Monatin Sweetness (%),[3]; [21],83.1%
same,SEV Monatin (% sucrose),[3]; [21],5.88 % sucrose
same,Retention of Monatin Sweetness (%),[3]; [22],83.1%
same,SEV Monatin (% sucrose),[3]; [22],5.88 % sucrose
same,Retention of Monatin Sweetness (%),[3]; [23],72.3%
same,SEV Monatin (% sucrose),[3]; [23],5.12 % sucrose
same,Retention of Monatin Sweetness (%),[3]; [24],57.9%
same,SEV Monatin (% sucrose),[3]; [24],4.10 % sucrose
same,Rate constant (k; day^−1) of sweetness loss,"[3]; pH 3.0, 40° C.",0.006 day⁻¹
same,Sweetness Retained (%),"[3]; pH 3.0, 100 days storage at 40° C.",58%
same,SEV Monatin (% sucrose),"[3]; pH 4.0, 40° C., day 0, monatin ~55 ppm",7.40 % sucrose
same,Retention of Monatin Sweetness (%),[3]; [25],95.7%
same,SEV Monatin (% sucrose),[3]; [25],7.08 % sucrose
same,Retention of Monatin Sweetness (%),[3]; [26],86.8%
same,SEV Monatin (% sucrose),[3]; [26],6.42 % sucrose
same,Retention of Monatin Sweetness (%),[3]; [27],85.9%
same,SEV Monatin (% sucrose),[3]; [27],6.36 % sucrose
same,Retention of Monatin Sweetness (%),[3]; [28],82.4%
same,SEV Monatin (% sucrose),[3]; [28],6.10 % sucrose
same,Retention of Monatin Sweetness (%),[3]; [29],84.5%
same,SEV Monatin (% sucrose),[3]; [29],6.25 % sucrose
same,Retention of Monatin Sweetness (%),[3]; [30],82.9%
same,SEV Monatin (% sucrose),[3]; [30],6.14 % sucrose
same,Retention of Monatin Sweetness (%),[3]; [31],78.4%
same,SEV Monatin (% sucrose),[3]; [31],5.80 % sucrose
same,Rate constant (k; day^−1) of sweetness loss,"[3]; pH 4.0, 40° C.",0.003 day⁻¹
same,Sweetness Retained (%),"[3]; pH 4.0, 100 days storage at 40° C.",78%
same,degree of degradation of monatin,[4],insignificant

# Source: US20050112260A1, “Monatin tabletop sweetener compositions and methods of making same” (Cargill, Inc., priority 2003, published 2005)
